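Dose response: 5 concentrations. Exposure: 48 h. Format: 96-well plates. Endpoint: linear interpolation; highest concentration if not reached. GI50 is the concentration that inhibits growth by half.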 Active and inactive are the calls of the source. Rule as the data show it: active = GI50 up to about 1.1 µM and inactive = higher.
Tests used:
Experiment in all cases: NCI anticancer screen, dose series, 48 h
M14 = tested on: M14
DMS-273 = tested on: DMS-273
TK-10 = tested on: TK-10
A498 = tested on: A498
DMS-114 = tested on: DMS-114
EKVX = tested on: EKVX
SNB-19 = tested on: SNB-19
HL-60 = tested on: HL-60
KM12 = tested on: KM12
RPMI-8226 = tested on: RPMI-8226
OVCAR-4 = tested on: OVCAR-4
OVCAR-3 = tested on: OVCAR-3
HT-29 = tested on: HT-29
COLO 205 = tested on: COLO 205
HOP-62 = tested on: HOP-62
HCT-116 = tested on: HCT-116
NCI-H460 = tested on: NCI-H460
786-0 = tested on: 786-0
HOP-18 = tested on: HOP-18
HCC 2998 = tested on: HCC 2998
NCI-H226 = tested on: NCI-H226
SK-MEL-5 = tested on: SK-MEL-5
U-251 = tested on: U-251
ACHN = tested on: ACHN
SK-MEL-28 = tested on: SK-MEL-28
OVCAR-5 = tested on: OVCAR-5
UACC-257 = tested on: UACC-257
HCT-15 = tested on: HCT-15
SW-620 = tested on: SW-620
SN12C = tested on: SN12C
LOX IMVI = tested on: LOX IMVI
HOP-92 = tested on: HOP-92
SF-295 = tested on: SF-295
SNB-78 = tested on: SNB-78
CCRF-CEM = tested on: CCRF-CEM
NCI-H23 = tested on: NCI-H23
K562 = tested on: K562
DLD-1 = tested on: DLD-1
MOLT-4 = tested on: MOLT-4
UACC-62 = tested on: UACC-62
A549 = tested on: A549
SF-539 = tested on: SF-539
IGROV-1 = tested on: IGROV-1
SNB-75 = tested on: SNB-75
UO-31 = tested on: UO-31
RXF 393 = tested on: RXF 393
SF-268 = tested on: SF-268
Malme-3M = tested on: Malme-3M
RXF 631 = tested on: RXF 631
SK-OV-3 = tested on: SK-OV-3
SK-MEL-2 = tested on: SK-MEL-2
M19-MEL = tested on: M19-MEL
CAKI-1 = tested on: CAKI-1
OVCAR-8 = tested on: OVCAR-8
SR = tested on: SR
KM-20L2 = tested on: KM-20L2

In the case of `O=C1CCC(=O)C1=NNc1cc(Cl)cc(Cl)c1`, the GI50 (M14) is reported as > 100 µM (inactive), the GI50 (DMS-273) is reported as > 100 µM (inactive) and the GI50 (TK-10) is reported as > 100 µM (inactive). For the same compound, the GI50 (A498) was 15.6 µM (inactive), the GI50 (DMS-114) was 98.2 µM (inactive) and the GI50 (EKVX) was > 100 µM (inactive). The GI50 (SNB-19) was > 100 µM (inactive), the GI50 (HL-60) was 63.5 µM (inactive) and the GI50 (KM12) was > 100 µM (inactive). The GI50 (RPMI-8226) was 32.7 µM (inactive), the GI50 (OVCAR-4) was > 100 µM (inactive) and the GI50 (OVCAR-3) was 26.2 µM (inactive). For the same compound, the GI50 (HT-29) was > 100 µM (inactive), the GI50 (COLO 205) was 36.6 µM (inactive) and the GI50 (HOP-62) was > 100 µM (inactive). For the same compound, the GI50 (HCT-116) was 76.4 µM (inactive), the GI50 (NCI-H460) was 71.8 µM (inactive) and the GI50 (786-0) was > 100 µM (inactive). The GI50 (HOP-18) was > 100 µM (inactive), the GI50 (HCC 2998) was > 100 µM (inactive) and the GI50 (NCI-H226) was > 100 µM (inactive). The GI50 (SK-MEL-5) was 61.5 µM (inactive), the GI50 (U-251) was 69.2 µM (inactive) and the GI50 (ACHN) was > 100 µM (inactive). The GI50 (SK-MEL-28) was > 100 µM (inactive), the GI50 (OVCAR-5) was > 100 µM (inactive) and the GI50 (UACC-257) was > 100 µM (inactive). For the same compound, the GI50 (HCT-15) was 55.8 µM, the GI50 (SW-620) was > 100 µM (inactive) and the GI50 (SN12C) was > 100 µM (inactive). For the same compound, the GI50 (LOX IMVI) was > 100 µM (inactive), the GI50 (HOP-92) was > 100 µM (inactive) and the GI50 (SF-295) was > 100 µM (inactive). For the same compound, the GI50 (SNB-78) was > 100 µM (inactive), the GI50 (CCRF-CEM) was 47.8 µM (inactive) and the GI50 (NCI-H23) was > 100 µM (inactive). The GI50 (K562) was > 100 µM (inactive), the GI50 (DLD-1) was > 100 µM (inactive) and the GI50 (MOLT-4) was 53.8 µM (inactive). The GI50 (UACC-62) was > 100 µM (inactive), the GI50 (A549) was > 100 µM (inactive) and the GI50 (SF-539) was > 100 µM (inactive). For the same compound, the GI50 (IGROV-1) was > 100 µM (inactive), the GI50 (SNB-75) was > 100 µM (inactive) and the GI50 (UO-31) was > 100 µM (inactive). The GI50 (RXF 393) was > 100 µM (inactive), the GI50 (SF-268) was > 100 µM (inactive) and the GI50 (Malme-3M) was > 100 µM (inactive). The GI50 (RXF 631) was > 100 µM (inactive), the GI50 (SK-OV-3) was > 100 µM (inactive) and the GI50 (SK-MEL-2) was > 100 µM (inactive). The GI50 (M19-MEL) was > 100 µM (inactive), the GI50 (CAKI-1) was > 100 µM (inactive) and the GI50 (OVCAR-8) was > 100 µM (inactive).

With `N#CC(C(=O)CCCC(=O)Nc1ccc(Cl)cc1Cl)c1ccccc1` (configuration not stated) the GI50 (M14) was > 100 µM (inactive), the GI50 (DMS-273) was > 100 µM (inactive) and the GI50 (TK-10) was > 100 µM (inactive). For the same compound, the GI50 (DMS-114) was > 100 µM (inactive), the GI50 (EKVX) was > 100 µM (inactive) and the GI50 (SNB-19) was > 100 µM (inactive). For the same compound, the GI50 (HL-60) was > 100 µM (inactive), the GI50 (KM12) was > 100 µM (inactive) and the GI50 (OVCAR-4) was > 100 µM (inactive). For the same compound, the GI50 (OVCAR-3) was > 100 µM (inactive), the GI50 (HT-29) was > 100 µM (inactive) and the GI50 (COLO 205) was > 100 µM (inactive). For the same compound, the GI50 (HOP-62) was > 100 µM (inactive), the GI50 (HCT-116) was > 100 µM (inactive) and the GI50 (NCI-H460) was > 100 µM (inactive). For the same compound, the GI50 (786-0) was > 100 µM (inactive), the GI50 (HOP-18) was > 100 µM (inactive) and the GI50 (HCC 2998) was > 100 µM (inactive). For the same compound, the GI50 (NCI-H226) was > 100 µM (inactive), the GI50 (SK-MEL-5) was > 100 µM (inactive) and the GI50 (U-251) was > 100 µM (inactive). For the same compound, the GI50 (ACHN) was > 100 µM (inactive), the GI50 (SK-MEL-28) was > 100 µM (inactive) and the GI50 (OVCAR-5) was > 100 µM (inactive). The GI50 (UACC-257) was > 100 µM (inactive), the GI50 (HCT-15) was over 100 µM and the GI50 (SW-620) was > 100 µM (inactive). The GI50 (SN12C) was > 100 µM (inactive), the GI50 (LOX IMVI) was > 100 µM (inactive) and the GI50 (SR) was > 100 µM (inactive). The GI50 (HOP-92) was > 100 µM (inactive), the GI50 (SF-295) was > 100 µM (inactive) and the GI50 (SNB-78) was > 100 µM (inactive). For the same compound, the GI50 (CCRF-CEM) was > 100 µM (inactive), the GI50 (NCI-H23) was > 100 µM (inactive) and the GI50 (K562) was > 100 µM (inactive). The GI50 (DLD-1) was > 100 µM (inactive), the GI50 (MOLT-4) was > 100 µM (inactive) and the GI50 (UACC-62) was > 100 µM (inactive). For the same compound, the GI50 (A549) was > 100 µM (inactive), the GI50 (SF-539) was > 100 µM (inactive) and the GI50 (IGROV-1) was > 100 µM (inactive). For the same compound, the GI50 (UO-31) was > 100 µM (inactive), the GI50 (RXF 393) was > 100 µM (inactive) and the GI50 (SF-268) was > 100 µM (inactive). For the same compound, the GI50 (Malme-3M) was > 100 µM (inactive), the GI50 (RXF 631) was > 100 µM (inactive) and the GI50 (SK-OV-3) was > 100 µM (inactive). The GI50 (SK-MEL-2) was > 100 µM (inactive), the GI50 (M19-MEL) was > 100 µM (inactive) and the GI50 (CAKI-1) was > 100 µM (inactive). For the same compound, the GI50 (OVCAR-8) was > 100 µM (inactive) and the GI50 (KM-20L2) was > 100 µM (inactive).

Source: ChEMBL document CHEMBL1201862, “PubChem BioAssay data set” (2004)
